The source of these data is paper PMC9147390, “Evaluation of TILI-2 as an Anti-Tyrosinase, Anti-Oxidative Agent and Its Role in Preventing Melanogenesis Using a Proteomics Approach” (Molecules, 2022).

No end group written: not given here.

Data set [1] is described as follows: ABTS radical scavenging assay. Conditions: 0 to 50 µM, 6 min, room temperature. Here is the method:
The ABTS radical scavenging assay was performed with slight modifications of the protocol reported by Re et al.. Briefly, ABTS^+ was generated by the incubation of 7 mM ABTS with 2.45 mM potassium persulfate for 16 h at room temperature. Next, the ABTS radical solution was diluted until the absorbance at 734 nm was 0.7. The diluted ABTS radical solution (100 µL) was mixed with TILI-2 (final concentration 0–200 µM, 10 µL) and incubated at room temperature for 6 min. After that, the absorbance at 734 nm was measured using a SpectraMax M5 plate reader (Molecular Devices, Sunnyvale, CA, USA). The percentage of ABTS radical inhibition was calculated using the equation below: ABTS radical inhibition %=1−A734 sample/A734 control×100 where A734 sample and A734 control are the absorbance at 734 nm of the reaction with and without peptide.
(§1) The data were represented as mean ± SD (n = 3). An ANOVA test according to Duncan (p < 0.05) was used for each comparison (IBM SPSS Statistics 20).

The nature of data set [2]: DPPH radical scavenging assay. As to conditions: 0 to 200 µM, 30 min, room temperature, dark. The protocol:
The DPPH radical scavenging assay was performed with slight modifications of the protocol reported by Jandaruang et al.. Briefly, a DPPH radical solution (0.1 mM, 100 µL) was mixed with TILI-2 (final concentration 0–200 µM, 10 µL) and incubated at room temperature in the dark for 30 min. Then, the reaction was monitored by measuring the absorbance of 515 nm using a SpectraMax M5 plate reader (Molecular Devices, Sunnyvale, CA, USA). DPPH radical inhibition (%) was calculated using the equation below: DPPH radical inhibition %=1−A515 sample/A515 control×100 where A515 sample and A515 control are the absorbance at 515 nm of the reaction with and without peptide.
as §1
(Loss of DPPH colour is used to gauge radical scavenging.)

Data set [3] relates to human keratinocyte (HaCaT). As to conditions: new results consistent with previous reports; cited from earlier work.
The test system of data set [4] is mouse melanoma (B16F1) cells. As to conditions: B16F1, 350 µM; cited from earlier work.
A further data set concerns RAW 264.7 cells. Kind of data set: Cell viability assay (MTT), macrophages. Type of data set: cell-based. Conditions: 24 h. Here is the method:
(§2) Fibroblast cells (NHDF) and B16F1 cells were purchased from the American Type Culture Collection (ATCC, Manassas, VA, USA) and cells were cultured in DMEM supplemented with 10% heat-inactivated FBS, 1% penicillin-streptomycin solution, and 5% L-glutamine. RAW 264.7 cells were purchased from the American Type Culture Collection (ATCC, Manassas, VA, USA) and cells were cultured in RPMI supplemented with 10% heat-inactivated FBS and 1% penicillin-streptomycin solution. These cells were cultured at 37 °C in a 5% CO2 and 90% relative humidity incubator. Cell viability assay was performed using slight modifications of the protocol described by Phosri et al.. Briefly, fibroblast cells (NHDF) (8000 cells/well) and RAW 264.7 cells (25,000 cells/well) were seeded onto a 96-well plate and allowed to recover overnight. Then, the cells were incubated with different concentrations of peptides (final concentration of 0–1400 µM, 100 µL). After 24 h incubation, the culture medium was removed, and MTT was added (0.5% w/v, 100 µL). After incubation for a further 30 min at 37 °C, DMSO was added and the absorbance at 570 nm was measured. The cell viability was calculated using the equation below: Cell viability %=A570 sample/A570 control×100 where A570 sample and A570 control are the absorbance of cells with and without the peptide treatment. The data were represented as mean ± SD (n = 3). […]

A further data set deals with NHDF cells. The experiment in a line: Cell viability assay (MTT), fibroblasts. Type of data set: cell-based, human. As to conditions: 24 h. Here is the method: as §2
Another data set has as its system mouse B16 melanomas. Conditions: cited from earlier work. An excerpt:
Bioactive peptides are a promising group of depigmenting agents because they are derived from natural sources and therefore display low cytotoxicity.

The target in data set [5] is T1, mushroom tyrosinase (mushroom, UniProt C7FF04 1-392). The experiment in a line: cell-based or functional assay.
T1 sequence (C7FF04 1-392): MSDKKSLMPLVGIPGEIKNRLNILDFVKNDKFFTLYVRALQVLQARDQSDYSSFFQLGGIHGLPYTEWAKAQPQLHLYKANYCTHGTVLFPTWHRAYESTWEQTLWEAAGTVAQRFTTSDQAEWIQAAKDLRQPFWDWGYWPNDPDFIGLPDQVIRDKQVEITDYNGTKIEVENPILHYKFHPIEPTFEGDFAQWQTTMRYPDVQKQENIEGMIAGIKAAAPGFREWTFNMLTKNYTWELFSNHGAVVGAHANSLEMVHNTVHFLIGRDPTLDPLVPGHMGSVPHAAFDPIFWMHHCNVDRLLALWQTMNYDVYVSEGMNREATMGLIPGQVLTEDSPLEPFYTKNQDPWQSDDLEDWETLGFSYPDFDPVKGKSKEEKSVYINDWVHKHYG
Data set [6] has as its target T1, mushroom tyrosinase. The experiment in a line: enzyme inhibition kinetics (Lineweaver-Burk plot and secondary plot); monophenolase activity of mushroom tyrosinase, L-tyrosine 0.10-0.80 mM, TILI-2 0-300 µM, 50 mM phosphate buffer pH 6.8, 25 °C, absorbance at 475 nm; Ki from slope versus TILI-2 concentration. Conditions: both partners purified.

In the case of `O=C1O[C@H]([C@@H](O)CO)C(O)=C1O` [Ascorbic acid, L-Ascorbic acid], in data set [1] (734 nm), the “ABTS radical scavenging (range over concentrations)” value is reported as 11.64–82.68%. Besides, the IC50 worked out at 15.9 ± 0.16 µM in data set [1] (absorbance 734 nm, mean ± SD, n = 3) and 40.09 ± 0.21 µM in data set [2] (absorbance 515 nm, mean ± SD, n = 3). Moreover, in data set [2] (515 nm), the “DPPH radical scavenging (range over concentrations)” value is 13.79–82.63%.
CNGVQPK [TILI-2]: the “cytotoxicity (in words)” value is “not toxic” in data set [3]; “non-toxic” in [4]; “not toxic” with RAW 264.7 cells (RAW 264.7, 0 to 1400 µM, MTT); “not toxic” with NHDF cells (NHDF, 0 to 1400 µM, MTT). Moreover, the values for the Cell viability in the data set on RAW 264.7 cells (1400 µM) and with NHDF cells (1400 µM) were 105.41 ± 5.42% and 99.65 ± 1.31%, respectively.
Regarding “LQPSHY [CT-2, CT-2 (LQPSHY), a C-terminus tyrosine peptide derived from rice bran]”, the “melanogenesis (in words)” value with mouse B16 melanomas is recorded as “repressed melanogenesis”.

B1: Tyrosinase Inhibitor Leucrocin I-2 (TILI-2) (peptide)
peptide: CNGVQPK
notes: N-terminal cysteine-containing heptapeptide, a peptide derivative from Leucrocin I; source: synthetic peptide (GL Biochem Ltd., Fmoc solid-phase synthesis, purity more than 95%)
As to B1, in the data set with mushroom tyrosinase [5], the “IC50 of inhibition of tyrosinase monophenolase activity (L-tyrosine as substrate, A475)” value worked out at 583 µM. In the data set with mushroom tyrosinase [6], this molecule returned a Ki of 273 µM.

In general, IC50 refers to the concentration that inhibits the measured activity by half. Higher therefore signals a need for much substance. Broadly, the Ki is the dissociation constant of the complex between target and ligand, obtained from inhibition or displacement.
